According to patent US20020150901A1, “Novel nucleic acids, polypeptides, methods of making, and uses thereof” (priority 2000, published 2002):
Entries after “also recorded” stand apart in the source; their conditions may differ.

Columns and labels:
Type in all cases: cell-based
[1] = test system: "dummy" transfected control COS-7 cells; experiment: Aequorin bioluminescence assay, "dummy" transfected control COS-7 cells (no leukotriene receptor); details: 200 nM agonist, COS-7 cells with "dummy" insert and aequorin
Description: (§1) The photoprotein aequorin, originally isolated from luminescent jellyfish, has proven to be a highly sensitive and quantitative bioluminescence Ca^2+ indicator in cells.
(§2) The aequorin complex contains a 22,000 MW apoaequorin protein, oxygen and the luminophore, coelenterazine. When three Ca^2+ ions bind to this complex, coelenterazine is oxidized to coelenteramide, releasing carbon dioxide and light (emission maximum ˜466 nm). Aequorin has a broad detection range, allowing the measurement of Ca^2+ concentrations from ˜0.1 μM to >100 μM.
(§3) The HUMAN CysLT2 GPCR and apoaequorin cDNAs were transiently co-expressed in cells (the aequorin is targeted for expression in mitochondria). Once cells have been transfected with these expression vectors, they are incubated in a medium containing cell-permeant coelenterazine which reconstitutes the aequorin complex. After formation of the active aequorin complex, intracellular Ca^2+ release caused by activation of the HUMAN CysLT2 GPCR is measured by assaying cells for light production using a luminometer.
(§4) COS-7 cells were trypsinized and plated at 1.5×10^5 cells/well in 6 well tissue culture plates. The cells were grown overnight at 37° C. in DMEM supplemented with 10% FBS, 1% glutamine and 1% non essential amino acids. […]

HUMAN CysLT2 GPCR = target: T1, HUMAN CysLT2 GPCR (Homo sapiens, UniProt Q9NS75); experiment: Aequorin bioluminescence assay of intracellular calcium release, COS-7 cells expressing HUMAN CysLT2 GPCR; details: 200 nM antagonist injected 10 seconds before 200 nM LTC4 or LTD4
T1 construct: expressed in transfected cells; host or cells: COS-7
T1 sequence (Q9NS75 1-346): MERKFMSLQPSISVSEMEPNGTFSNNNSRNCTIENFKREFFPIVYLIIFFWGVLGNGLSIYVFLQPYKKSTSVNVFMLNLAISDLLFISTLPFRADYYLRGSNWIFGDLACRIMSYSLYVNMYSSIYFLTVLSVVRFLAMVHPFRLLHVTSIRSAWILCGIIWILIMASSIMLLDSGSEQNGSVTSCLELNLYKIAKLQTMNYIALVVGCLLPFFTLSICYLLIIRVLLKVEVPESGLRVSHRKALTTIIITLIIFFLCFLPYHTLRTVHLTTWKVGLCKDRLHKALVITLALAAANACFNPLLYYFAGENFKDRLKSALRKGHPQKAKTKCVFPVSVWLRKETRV
Description: as §1, §2, §3, §4

human CysLT1 receptor = target: T2, human CysLT1 receptor (Homo sapiens, UniProt Q9Y271); experiment: Aequorin bioluminescence assay of intracellular calcium release, COS-7 cells expressing human CysLT1; details: 200 nM antagonist injected 10 seconds before 200 nM LTC4 or LTD4
T2 construct: expressed in transfected cells; host or cells: COS-7
T2 sequence (Q9Y271 1-337): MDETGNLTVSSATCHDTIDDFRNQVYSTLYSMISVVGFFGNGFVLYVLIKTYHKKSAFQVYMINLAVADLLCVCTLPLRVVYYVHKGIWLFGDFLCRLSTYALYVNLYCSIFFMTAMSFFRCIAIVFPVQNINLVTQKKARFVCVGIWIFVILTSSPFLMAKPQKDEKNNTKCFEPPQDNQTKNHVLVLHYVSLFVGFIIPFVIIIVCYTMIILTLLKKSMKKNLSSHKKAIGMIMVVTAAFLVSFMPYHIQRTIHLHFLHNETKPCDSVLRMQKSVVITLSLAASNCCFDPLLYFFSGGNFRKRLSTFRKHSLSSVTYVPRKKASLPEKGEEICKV

SMILES | aequorin activation by agonist [1] | block of LTC4 or LTD4 induced receptor activation by antagonist (HUMAN CysLT2 GPCR) | block of LTC4 or LTD4 induced receptor activation by antagonist (human CysLT1 receptor)
CCCCC/C=C\C\C=C/C=C/C=C/[C@@H](SC[C@H](NC(=O)CC[C@H](N)C(=O)O)C(=O)NCC(=O)O)[C@@H](O)CCCC(=O)O [LTC4] | not on the “dummy” transfected control cells |  | 
CCCCC/C=C\C\C=C/C=C/C=C/[C@@H](SC[C@H](N)C(=O)NCC(=O)O)[C@@H](O)CCCC(=O)O [LTD4] | not on the “dummy” transfected control cells |  | 
CN(C)C(=O)CCSC(SCCC(=O)O)c1cccc(/C=C/c2ccc3ccc(Cl)cc3n2)c1 (stereo not shown) [MK571] |  | neither antagonist significantly inhibited; also recorded: failed to block; also recorded: resistance to inhibition | effectively blocked
